Tests used:
[1] = test system: Type II collagen arthritis in mice; assay: Type II collagen arthritis tests; type: in vivo; settings: injected from day one after collagen injection to end of sixth week, L-carnitine 50 and 100 mg/kg, glucosamine 100 and 200 mg/kg, chondroitin sulphate 50 and 100 mg/kg
Procedure: Type II collagen arthritis was induced in mice according to the technique described by Trentham (Trentham D. R., Townes A. S., Kang A. H., J. Exp. Med., 146, 857, 1977). One group of mice was immunised by means of intradermal injections of natural collagen emulsified in complete Freund's adjuvant (Difco Labs., Detroit, U.S.A.) at the base of the tail. Three weeks later these animals were re-injected intraperitoneally with the same dose of emulsified collagen. L-carnitine (50 mg/kg and 100 mg/kg), glucosamine (100 mg/kg and 200 mg/kg) and chondroitin sulphate (50 mg/kg and 100 mg/kg) were injected alone or in combination from day one after the collagen injection up to the end of the sixth week. One group of animals (control) received no treatment. The assessment of the severity of the oedema was done according to its intensity with scores ranging from 1 to 4. […] When L-carnitine was combined with either glucosamine or with chondroitin sulphate an approximately 50% reduction of arthrosis was obtained.

[2] = test system: carragenin-induced oedema in the rat; assay: Carragenin oedema tests; type: in vivo; settings: for effect on severity of the carragenin-induced oedema: substance alone, 50, 100 and 200 mg/kg one hour prior to carragenin
Procedure: Carragenin oedema was induced in the rat by injection of 0.1 ml of a 1% carragenin solution (Sigma Chemical) in the subplantar region of the rat's right paw. The volume of the paw was measured by means of a mercury plethysmograph one hour later and over the 5-hour period following carragenin injection.
L-carnitine, glucosamine and chondroitin sulphate were administered one hour prior to carragenin injection, both alone and in combination at doses of 50, 100 and 200 mg/kg of these compounds.

[3] = dose 200 mg/kg (each substance), 2 hours
[4] = dose 200 mg/kg (each substance), 3 hours
[5] = dose 100 mg/kg (each substance), 2 hours
[6] = dose 100 mg/kg (each substance), 3 hours
[7] = dose 100 mg/kg (each substance), 4 hours
[8] = dose 200 mg/kg (each substance), 1 hour
[9] = dose 200 mg/kg (each substance), 4 hours

Compound | inhibitory effect on the development of the typical signs of arthritis [1] | % Reduction of oedema at various hours after carragenin injection [2, 3] | % Reduction of oedema at various hours after carragenin injection [2, 4] | effect on severity of the carragenin-induced oedema [2] | % Reduction of oedema at various hours after carragenin injection ([2]; dose 100 mg/kg (each substance), 1 hour) | % Reduction of oedema at various hours after carragenin injection [2, 5] | % Reduction of oedema at various hours after carragenin injection [2, 6] | % Reduction of oedema at various hours after carragenin injection [2, 7] | % Reduction of oedema at various hours after carragenin injection [2, 8] | % Reduction of oedema at various hours after carragenin injection [2, 9]
C[N+](C)(C)C[C@H](O)CC(=O)[O-] [L-carnitine] | neither L-carnitine, glucosamine nor chondroitin sulphate when administered alone had any inhibitory effect | 10 ± 0.2% | 5 ± 0.3% | failed to modify the severity | – | – | – | – | – | –
chondroitin sulphate | neither L-carnitine, glucosamine nor chondroitin sulphate when administered alone had any inhibitory effect | 15 ± 1.1% | 20 ± 1.8% | failed to modify the severity | 10 ± 0.3% | 10 ± 0.8% | 5 ± 0.4% | 5 ± 0.1% | 10 ± 1.9% | 10 ± 1.2%
N[C@H]1C(O)O[C@H](CO)[C@@H](O)[C@@H]1O (some centres unmarked) [Glucosamine, glucosamine] | neither L-carnitine, glucosamine nor chondroitin sulphate when administered alone had any inhibitory effect | 10 ± 0.9% | 10 ± 1.1% | failed to modify the severity | – | 5 ± 0.3% | 5 ± 0.5% | 5 ± 0.6% | 5 ± 0.2% | 5 ± 0.5%
